Measured values taken from PubChem BioAssay AID248 (DTP/NCI, 2004).
Toxic doses and inconclusive results are not listed. No stated cut-off is given here; in the data, active means T/C of 150% or more; inactive means T/C below 125%.

Tested on: L1210 leukemia ip in BDF1 mice, survival T/C
Assay: NCI In Vivo Anticancer Drug Screen. Data for tumor model L1210 Leukemia (intraperitoneal) in B6D2F1 (BDF1) mice
Conditions: endpoint: mean survival time, higher = longer survival
Procedure, shortened: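 In this screen, tumor-bearing mice given compound are compared to those given vehicle, and their survival values are reported as a treated-to-control quotient.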

[1] = dose: 100.0 mg/kg/injection, schedule: Q04DX002 (ip), vehicle: saline with Tween-80
[2] = dose: 200.0 mg/kg/injection, schedule: Q04DX002 (ip), vehicle: saline with Tween-80
[3] = dose: 400.0 mg/kg/injection, schedule: Q04DX002 (ip), vehicle: saline with Tween-80
[4] = dose: 100.0 mg/kg/injection, schedule: Q04DX003 (ip), vehicle: Klucel (hydroxypropylcellulose) (HPC)
[5] = dose: 200.0 mg/kg/injection, schedule: Q04DX003 (ip), vehicle: Klucel (hydroxypropylcellulose) (HPC)
[6] = dose: 400.0 mg/kg/injection, schedule: Q04DX003 (ip), vehicle: Klucel (hydroxypropylcellulose) (HPC)
[7] = dose: 100.0 mg/kg/injection, schedule: Q01DX009 (ip), vehicle: saline with Tween-80
[8] = dose: 200.0 mg/kg/injection, schedule: Q01DX009 (ip), vehicle: saline with Tween-80
[9] = dose: 400.0 mg/kg/injection, schedule: Q01DX009 (ip), vehicle: saline with Tween-80

Measured: T/C

Cc1ccc(CC(C)(O)CC(C)(O)Cc2ccc(C)cc2)cc1 (stereo not drawn)
inactive: dose: 100.0 mg/kg/injection, schedule: Q04DX003 (ip), vehicle: saline 100 % of control | dose: 200.0 mg/kg/injection, schedule: Q04DX003 (ip), vehicle: saline 93 % of control | dose: 400.0 mg/kg/injection, schedule: Q04DX003 (ip), vehicle: saline 93 % of control

COC(=O)COc1c(C)cc(Cl)cc1Cl
inactive: [1] 96 % of control | [2] 86 % of control | [3] 98 % of control

COc1ccc2nc3cc(Cl)ccc3c(NCCCCCN3CCCCC3)c2c1
inactive: dose: 5.0 mg/kg/injection, schedule: Q01DX001 (ip), vehicle: saline 97 % of control | dose: 10.0 mg/kg/injection, schedule: Q01DX001 (ip), vehicle: saline 97 % of control | dose: 20.0 mg/kg/injection, schedule: Q01DX001 (ip), vehicle: saline 101 % of control | dose: 40.0 mg/kg/injection, schedule: Q01DX001 (ip), vehicle: saline 106 % of control | dose: 80.0 mg/kg/injection, schedule: Q01DX001 (ip), vehicle: saline 100 % of control | dose: 200.0 mg/kg/injection, schedule: Q01DX001 (ip), vehicle: saline 94 % of control

CCC[CH2][Sn]([CH2]CCC)([n]1cncn1)[n]1cncn1
inactive: dose: 3.13 mg/kg/injection, schedule: Q04DX003 (ip), vehicle: saline with Tween-80 101 % of control | dose: 6.25 mg/kg/injection, schedule: Q04DX002 (ip), vehicle: saline with Tween-80 104 % of control | dose: 6.25 mg/kg/injection, schedule: Q04DX003 (ip), vehicle: saline with Tween-80 101 % of control | dose: 12.5 mg/kg/injection, schedule: Q04DX002 (ip), vehicle: saline with Tween-80 104 % of control | dose: 12.5 mg/kg/injection, schedule: Q04DX003 (ip), vehicle: saline with Tween-80 95 % of control | dose: 25.0 mg/kg/injection, schedule: Q04DX002 (ip), vehicle: saline with Tween-80 93 % of control

CN(C)c1ccc2c(c1)Cc1cc(N3C(=O)C=CC3=O)ccc1-2
inactive: [4] 101 % of control | [5] 101 % of control | [6] 95 % of control

CNC(=O)Nc1cccc2c(=O)[nH][nH]c(=O)c12
inactive: dose: 100.0 mg/kg/injection, schedule: Q01DX009 (ip), vehicle: Klucel (hydroxypropylcellulose) (HPC) 114 % of control | [4] 97 % of control | dose: 200.0 mg/kg/injection, schedule: Q01DX009 (ip), vehicle: Klucel (hydroxypropylcellulose) (HPC) 100 % of control | [5] 108 % of control | dose: 400.0 mg/kg/injection, schedule: Q01DX009 (ip), vehicle: Klucel (hydroxypropylcellulose) (HPC) 86 % of control | [6] 91 % of control

OC1CC2CCC1C21OCCO1 (stereo not drawn)
inactive: dose: 100.0 mg/kg/injection, schedule: Q01DX009 (ip), vehicle: saline 107 % of control | dose: 200.0 mg/kg/injection, schedule: Q01DX009 (ip), vehicle: saline 100 % of control | dose: 400.0 mg/kg/injection, schedule: Q01DX009 (ip), vehicle: saline 109 % of control

CN1c2ccccc2NP1(=S)c1ccccc1 (stereo not drawn)
inactive: [1] 90 % of control | [2] 90 % of control | [3] 87 % of control

O=S1(=O)CCCCC1Cl (stereo not drawn)
inactive: dose: 38.0 mg/kg/injection, schedule: Q01DX009 (ip), vehicle: other 96 % of control | dose: 75.0 mg/kg/injection, schedule: Q01DX001 (ip), vehicle: other 100 % of control | dose: 75.0 mg/kg/injection, schedule: Q01DX009 (ip), vehicle: other 89 % of control | dose: 75.0 mg/kg/injection, schedule: Q04DX003 (ip), vehicle: other 98 % of control | dose: 150.0 mg/kg/injection, schedule: Q01DX001 (ip), vehicle: other 100 % of control | dose: 150.0 mg/kg/injection, schedule: Q01DX009 (ip), vehicle: other 91 % of control | dose: 150.0 mg/kg/injection, schedule: Q04DX003 (ip), vehicle: other 98 % of control | dose: 300.0 mg/kg/injection, schedule: Q01DX001 (ip), vehicle: other 103 % of control

O=P(OCc1ccccc1)(N(CCO)CCO)N(CCCl)CCCl (stereo not drawn)
inactive: dose: 25.0 mg/kg/injection, schedule: Q01DX Z (ip), vehicle: saline 91 % of control | dose: 50.0 mg/kg/injection, schedule: Q01DX Z (ip), vehicle: saline 100 % of control | dose: 100.0 mg/kg/injection, schedule: Q01DX Z (ip), vehicle: saline 94 % of control | dose: 200.0 mg/kg/injection, schedule: Q01DX Z (ip), vehicle: saline 103 % of control

COc1ccc(C(O)c2ccccc2C(=O)Nc2ccccc2)cc1 (stereo not drawn)
inactive: [7] 98 % of control | [8] 88 % of control | [9] 95 % of control

COC(=O)Cc1c(C(=O)OC)c(O)cc(O)c1C(=O)OC
inactive: dose: 50.0 mg/kg/injection, schedule: Q01DX001 (ip), vehicle: carboxymethylcellulose (CMC) 100 % of control | dose: 100.0 mg/kg/injection, schedule: Q01DX001 (ip), vehicle: carboxymethylcellulose (CMC) 97 % of control | dose: 200.0 mg/kg/injection, schedule: Q01DX001 (ip), vehicle: carboxymethylcellulose (CMC) 100 % of control | dose: 400.0 mg/kg/injection, schedule: Q01DX001 (ip), vehicle: carboxymethylcellulose (CMC) 100 % of control

NC(=O)c1ncc(-c2ccc(Cl)cc2)[nH]c1=O
inactive: [7] 91 % of control | [8] 97 % of control | [9] 97 % of control

O=c1ccc2c([nH]1)CCCCC2
inactive: [4] 106 % of control | [5] 100 % of control | [6] 95 % of control
